This test concerns the target Histone-binding protein RBBP4/Polycomb protein EED/Polycomb protein SUZ12/Zinc finger protein AEBP2 (Homo sapiens, UniProt O75530+Q09028+Q15022+Q6ZN18). Description: Enzymatic Activity Assay: An aliquot of each serial dilution of test compound was added to deep 384 well plate using Acoustic Technology instrument (Echo 550, LabCyte) containing reaction buffer (50 mM Tris-HCl (pH 8), 0.01% Brij35, 1 mM EDTA, 1 mM DTT, 1 mM PMSF and 1% DMSO), 10 nM purified PRC2 complex and 0.05 mg/ml core histone H3 in a 5 μl volume. The reaction was mixed gently and then pre-incubated for 20 min at 30° C. The enzymatic reaction was initiated by adding 1 uM S-Adenosyl-L-[methyl-3H]methionine and incubated for 1 hr at 30° C. After 1 hr, the reaction product was detected using a filter binding method and the amount of tritiated H3 core histone was quantitated using a scintillation counter. The test is classed as protein-complex assay.

Chain of Histone-binding protein RBBP4/Polycomb protein EED/Polycomb protein SUZ12/Zinc finger protein AEBP2 (O75530 whole entry): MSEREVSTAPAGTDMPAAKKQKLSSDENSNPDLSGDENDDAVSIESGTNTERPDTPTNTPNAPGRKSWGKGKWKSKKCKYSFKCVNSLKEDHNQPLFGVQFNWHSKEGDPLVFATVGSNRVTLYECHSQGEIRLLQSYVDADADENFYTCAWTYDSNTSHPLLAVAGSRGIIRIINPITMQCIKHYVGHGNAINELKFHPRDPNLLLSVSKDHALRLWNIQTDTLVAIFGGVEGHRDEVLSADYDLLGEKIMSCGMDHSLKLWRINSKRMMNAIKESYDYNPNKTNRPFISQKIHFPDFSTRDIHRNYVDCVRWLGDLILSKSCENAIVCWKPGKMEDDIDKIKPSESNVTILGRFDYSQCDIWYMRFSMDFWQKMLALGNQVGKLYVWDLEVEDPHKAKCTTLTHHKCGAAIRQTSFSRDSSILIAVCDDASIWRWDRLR
Chain of Histone-binding protein RBBP4/Polycomb protein EED/Polycomb protein SUZ12/Zinc finger protein AEBP2 (Q15022 whole entry): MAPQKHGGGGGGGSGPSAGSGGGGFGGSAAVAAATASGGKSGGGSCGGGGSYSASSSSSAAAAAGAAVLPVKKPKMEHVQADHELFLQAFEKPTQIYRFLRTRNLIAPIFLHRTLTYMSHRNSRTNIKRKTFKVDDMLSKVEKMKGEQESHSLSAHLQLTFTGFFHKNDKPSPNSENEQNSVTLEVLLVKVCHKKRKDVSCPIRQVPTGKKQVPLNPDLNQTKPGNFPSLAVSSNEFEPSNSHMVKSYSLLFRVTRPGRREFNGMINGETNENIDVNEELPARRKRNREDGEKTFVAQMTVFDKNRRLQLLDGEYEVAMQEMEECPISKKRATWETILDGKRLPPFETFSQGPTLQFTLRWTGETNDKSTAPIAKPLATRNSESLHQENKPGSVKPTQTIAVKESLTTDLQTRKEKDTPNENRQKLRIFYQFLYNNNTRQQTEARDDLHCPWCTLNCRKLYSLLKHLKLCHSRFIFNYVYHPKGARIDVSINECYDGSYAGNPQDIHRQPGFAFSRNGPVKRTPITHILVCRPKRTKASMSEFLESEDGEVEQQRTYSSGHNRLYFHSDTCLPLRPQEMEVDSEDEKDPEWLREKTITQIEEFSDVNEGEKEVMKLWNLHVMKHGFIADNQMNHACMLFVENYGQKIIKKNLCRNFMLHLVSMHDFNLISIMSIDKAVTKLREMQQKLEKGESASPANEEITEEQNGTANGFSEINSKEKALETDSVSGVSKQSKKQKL
Chain of Histone-binding protein RBBP4/Polycomb protein EED/Polycomb protein SUZ12/Zinc finger protein AEBP2 (Q6ZN18 whole entry): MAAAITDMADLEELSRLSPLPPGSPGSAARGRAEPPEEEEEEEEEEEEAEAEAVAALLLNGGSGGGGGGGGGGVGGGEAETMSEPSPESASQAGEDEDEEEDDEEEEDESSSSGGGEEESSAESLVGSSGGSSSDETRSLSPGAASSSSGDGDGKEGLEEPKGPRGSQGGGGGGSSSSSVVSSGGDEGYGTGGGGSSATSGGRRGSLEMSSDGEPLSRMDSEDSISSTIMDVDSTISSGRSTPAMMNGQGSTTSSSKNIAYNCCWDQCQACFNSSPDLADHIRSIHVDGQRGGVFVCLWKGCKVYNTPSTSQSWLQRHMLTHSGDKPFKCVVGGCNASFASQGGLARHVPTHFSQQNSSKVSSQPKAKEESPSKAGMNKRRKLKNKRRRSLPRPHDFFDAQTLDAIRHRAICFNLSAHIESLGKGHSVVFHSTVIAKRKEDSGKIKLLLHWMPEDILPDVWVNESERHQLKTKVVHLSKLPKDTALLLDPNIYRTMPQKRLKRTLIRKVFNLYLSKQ
Chain of Histone-binding protein RBBP4/Polycomb protein EED/Polycomb protein SUZ12/Zinc finger protein AEBP2 (Q09028 whole entry): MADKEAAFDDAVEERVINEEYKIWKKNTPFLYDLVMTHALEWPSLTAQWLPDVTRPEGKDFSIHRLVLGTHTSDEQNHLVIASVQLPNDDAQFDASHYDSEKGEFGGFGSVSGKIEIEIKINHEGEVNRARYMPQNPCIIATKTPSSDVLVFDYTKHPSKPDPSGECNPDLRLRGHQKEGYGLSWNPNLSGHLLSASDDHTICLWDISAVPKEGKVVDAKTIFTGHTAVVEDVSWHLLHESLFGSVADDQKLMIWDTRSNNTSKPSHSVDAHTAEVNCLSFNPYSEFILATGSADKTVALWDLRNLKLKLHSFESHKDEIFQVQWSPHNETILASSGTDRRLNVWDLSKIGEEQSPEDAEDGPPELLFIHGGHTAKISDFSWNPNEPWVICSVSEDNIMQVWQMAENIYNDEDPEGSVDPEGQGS

The compound `Cc1cc(-c2cnc(NCc3c(F)ccc4c3CCCO4)n3cc(C#N)nc23)n(C)n1` yielded an IC50 greater than 500 nM.

The values are drawn from ChEMBL document CHEMBL5729420, “Substituted imidazo[1,2-c]pyrimidines as PRC2 inhibitors” (2022).
